Experimental data as given in patent EP2253617A1, “Halogenated compounds as pesticides” (Bayer CropScience AG, priority 2009, dated 2010).
Read-outs that look alike come from different tables or passages of the source.

Key:
Spodoptera frugiperda = Spodoptera frugiperda test (SPODFR spray treatment); type: in vivo; details: 500 g/ha, sprayed maize leaf discs, caterpillars, after 7 days; 100 % = all caterpillars killed
Source text: Spodoptera frugiperda-Test (SPODFR Spritzbehandlung)
(§1) • Lösungsmittel: 78,0 GewichtsteileAceton 1,5 Gewichtsteile Dimethylformamid • Emulgator: 0,5 Gewichtsteile Alkylarylpolyglykolether
(§2) Zur Herstellung einer zweckmäßigen Wirkstoffzubereitung vermischt man 1 Gewichtsteil Wirkstoff mit den angegebenen Mengen Lösungsmittel und Emulgator und verdünnt das Konzentrat mit emulgatorhaltigem Wasser auf die gewünschte Konzentration.
Maisblattscheiben (Zea mays) werden mit einer Wirkstoffzubereitung der gewünschten Konzentration gespritzt und nach dem Abtrocknen mit Raupen des Heerwurms (Spodoptera frugiperda) besetzt.Nach 7 Tagen wird die Wirkung in % bestimmt. Dabei bedeutet 100 %, dass alle Raupen abgetötet wurden; 0 % bedeutet, dass keine Raupe abgetötet wurde.

Phaedon cochleariae = assay: Phaedon test (PHAECO spray treatment); type: in vivo; details: sprayed Chinese cabbage leaf discs, larvae, after 7 days, 100 % = all beetle larvae killed
Source text: Phaedon-Test (PHAECO Spritzbehandlung)
as §1, §2
Chinakohlblattscheiben (Brassica pekinensis) werden mit einer Wirkstoffzubereitung der gewünschten Konzentration gespritzt und nach dem Abtrocknen mit Larven des Meerrettichblattkäfers (Phaedon cochleariae) besetzt.
Nach 7 Tagen wird die Wirkung in % bestimmt. Dabei bedeutet 100 %, dass alle Käferlarven abgetötet wurden; 0 % bedeutet, dass keine Käferlarven abgetötet wurden.

physchem [1] = assay: physchem
Tetranychus urticae = type: in vivo; details: foliar, 144 h
Source text: Tetranychus-Test, OP-resistent (TETRUR Spritzbehandlung)
as §1, §2
Bohnenblattscheiben (Phaseolus vulgaris), die von allen Stadien der Gemeinen Spinnmilbe (Tetranychus urticae) befallen sind, werden mit einer Wirkstoffzubereitung der gewünschten Konzentration gespritzt.
Nach 6 Tagen wird die Wirkung in % bestimmt. Dabei bedeutet 100 %, dass alle Spinnmilben abgetötet wurden; 0 % bedeutet, dass keine Spinnmilben abgetötet wurden.

physchem [2] = assay: physchem; remark: listed apart in the source

SMILES | Wirkung (Spodoptera frugiperda) | Wirkung (Phaedon cochleariae; 500 g/ha) | chromatographic logP (physchem [1]) | Wirkung (Tetranychus urticae; 500 g/ha) | chromatographic logP (physchem [2]) | Wirkung (Phaedon cochleariae; 100 g/ha) | Wirkung (Tetranychus urticae; 100 g/ha)
Cn1nc(C(F)(F)C(F)(F)F)c(Br)c1C(=O)Nc1ccc(Cl)c(C(=O)Nc2ccc(Cl)cn2)c1 [Ia-35] | 80% | 100% | – | – | – | – | –
Cn1nc(C(F)(F)C(F)(F)F)c(C(F)(F)F)c1C(=O)Nc1ccc(Cl)c(C(=O)Nc2ccc(F)c(C(F)(F)F)c2)c1 [Ia-39] | 100% | 100% | 4.51 | – | – | – | –
Cn1nc(C(F)(F)C(F)(F)F)c(C(F)(F)F)c1C(=O)Nc1ccc(Cl)c(C(=O)Nc2cccc(Cl)n2)c1 [Ia-19] | 100% | 100% | 3.94 | 100% | – | – | –
Cn1nc(C(F)(F)C(F)(F)F)c(C(F)(F)F)c1C(=O)Nc1ccnc(C(=O)Nc2ccc(F)cc2)c1 [Ib-1, N-[2-(4-fluor-phenylcarbamoyl)pyrid-4-yl]-1-methyl-3-(pentafluorethyl)-4-(trifluormethyl)-1H-pyrazol-5-carbonsäureamid] | – | – | – | – | 4.3 | – | –
Cc1nc(C(F)(F)F)ccc1C(=O)Nc1ccc(Cl)c(C(=O)Nc2cccc(Cl)c2)c1 [Ia-9] | – | 80% | – | – | 3.6 | – | –
Cn1nc(C(F)(F)C(F)(F)F)c(C(F)(F)F)c1C(=O)Nc1ccc(Cl)c(C(=O)Nc2ccnc(Cl)c2)c1 [Ia-6] | 100% | 100% | 3.37 | 80% | – | – | –
Cc1c(NC(=O)c2cc(NC(=O)c3c(C(F)(F)F)c(C(F)(F)C(F)(F)F)nn3C)ccc2Cl)ccc(F)c1Cl [Ia-33] | 100% | 100% | 4.34 | 90% | – | – | –
O=C(Nc1ccc(Cl)c(C(=O)Nc2ccc(F)cc2)c1)c1csc(C(F)(F)F)n1 [Ia-5] | – | – | – | – | 3.35 | – | –
Cc1cc(F)ccc1NC(=O)c1cc(NC(=O)c2c(C(F)(F)F)c(C(F)(F)C(F)(F)F)nn2C)ccc1Cl [Ia-23] | 100% | 100% | 4.05 | 90% | – | – | –
Cn1nc(Cn2nc(C(F)(F)C(F)(F)F)cc2C(F)(F)C(F)(F)F)c(C(F)(F)F)c1C(=O)Nc1ccc(Cl)c(C(=O)Nc2ccc(F)cc2)c1 [Ia-43] | 100% | 100% | – | – | 4.99 | – | –
Cc1nc(C(F)(F)F)ccc1C(=O)Nc1ccc(Cl)c(C(=O)Nc2ccc(F)cc2)c1 [Ia-3, N-{4-Chlor-3-[(4-fluorphenyl)carbamoyl]phenyl}-2-methyl-6-(trifluormethyl)nicotinamid] | 100% | 100% | – | – | 3.15 | – | –
Cn1nc(C(F)(F)C(F)(F)F)c(C(F)(F)F)c1C(=O)Nc1ccc(Cl)c(C(=O)Nc2ccc(Cl)c(Cl)c2)c1 [Ia-42, N-{4-Chlor-3-[(3,4-dichlorphenyl)carbamoyl]phenyl}-1-methyl-3-(pentafluorethyl)-4-(trifluormethyl)-1H-pyrazol-5-carboxamid] | 100% | 100% | 4.65 | – | – | – | –
Cc1cc(NC(=O)c2cc(NC(=O)c3c(C(F)(F)F)c(C(F)(F)C(F)(F)F)nn3C)ccc2Cl)c(Cl)cc1F [Ia-41] | – | 100% | 4.64 | – | – | – | –
O=C(Nc1cccc(Cl)c1)c1cc(NC(=O)c2cnc(C(F)(F)C(F)(F)F)nc2C(F)(F)F)ccc1Cl [Ia-32, N-{4-Chlor-3-[(3-chlorphenyl)carbamoyl]phenyl}-2-(pentafluorethyl)-4-(trifluormethyl)pyrimidin-5-carboxamid] | 100% | 100% | – | – | 4.32 | – | –
Cn1nc(C(F)(F)C(F)(F)F)c(C(F)(F)F)c1C(=O)Nc1ccc(Cl)c(C(=O)Nc2cnccc2Cl)c1 [Ia-4] | 80% | 100% | 3.33 | – | – | – | –
O=C(Nc1ccc(F)cc1)c1cc(NC(=O)c2cnc(C(F)(F)C(F)(F)F)nc2C(F)F)ccc1Cl [Ia-10] | – | 100% | – | – | 3.67 | – | –

SMILES | Wirkung (Spodoptera frugiperda) | Wirkung (Phaedon cochleariae; 500 g/ha) | chromatographic logP (physchem [1]) | Wirkung (Tetranychus urticae; 500 g/ha) | chromatographic logP (physchem [2]) | Wirkung (Phaedon cochleariae; 100 g/ha) | Wirkung (Tetranychus urticae; 100 g/ha)
Cn1nc(C(F)(F)C(F)(F)F)c(C(F)(F)F)c1C(=O)Nc1ccc(Cl)c(C(=O)Nc2cccnc2Cl)c1 [Ia-13] | 100% | 100% | 3.73 | 90% | – | – | –
O=C(Nc1ccc(F)cc1)c1cc(NC(=O)c2cnc(C(F)(F)C(F)(F)F)nc2C(F)(F)C(F)(F)F)ccc1Cl [Ia-34] | 100% | 100% | – | 80% | 4.36 | – | –
Cn1nc(C(F)(F)C(F)(F)F)c(Br)c1C(=O)Nc1ccc(Cl)c(C(=O)Nc2ccc(Cl)cc2)c1 [Ia-38] | – | 80% | – | – | 4.43 | – | –
O=C(Nc1ccc(F)cc1)c1cc(NC(=O)c2cnc(C(F)(F)C(F)(F)F)nc2C2CC2)ccc1Cl [Ia-24] | 100% | 100% | – | – | 4.08 | – | –
Cn1nc(C(F)(F)C(F)(F)F)c(C(F)(F)F)c1C(=O)Nc1ccc(Cl)c(C(=O)Nc2cccc(C(F)(F)F)c2)c1 [Ia-37] | 100% | 100% | 4.4 | – | – | – | –
Cn1nc(C(F)(F)C(F)(F)F)c(C(F)(F)F)c1C(=O)Nc1ccc(Cl)c(C(=O)Nc2ccc(Cl)cn2)c1 [Ia-27] | 100% | 100% | 4.17 | – | – | – | –
O=C(Nc1cccc(Cl)c1)c1cc(NC(=O)c2cnc(C(F)(F)C(F)(F)F)nc2C2CC2)ccc1Cl [Ia-40] | 100% | – | – | – | 4.54 | – | –
Cn1nc(C(F)(F)F)c(Br)c1C(=O)Nc1ccc(Cl)c(C(=O)Nc2ccc(Cl)nc2)c1 [Ia-7] | – | – | – | – | 3.42 | 100% | 80%
COc1ccc(NC(=O)c2cc(NC(=O)c3c(C(F)(F)F)c(C(F)(F)C(F)(F)F)nn3C)ccc2Cl)cc1 [Ia-12] | 100% | – | 3.68 | – | – | – | –
O=C(Nc1ccc(F)cc1)c1cc(NC(=O)c2cnc(C(F)(F)C(F)(F)F)nc2C(F)(F)F)ccc1Cl [Ia-20] | 100% | 100% | – | – | 3.98 | – | –
Cn1nc(C(F)(F)C(F)(F)F)c(C(F)(F)F)c1C(=O)Nc1ccc(Cl)c(C(=O)Nc2ccncc2)c1 [Ia-1] | – | 100% | 1.99 | – | – | – | –
O=C(Nc1cccc(Cl)c1)c1cc(NC(=O)c2cnc(C(F)(F)C(F)(F)F)nc2C(F)F)ccc1Cl [Ia-25] | 100% | 100% | – | – | 4.08 | – | –
Cn1nc(C(F)(F)C(F)(F)F)c(C(F)(F)F)c1C(=O)Nc1ccc(Cl)c(C(=O)Nc2cc(Cl)c(Cl)c(Cl)c2)c1 [Ia-44] | 100% | 100% | 5.15 | – | – | – | –
Cn1nc(C(F)(F)C(F)(F)F)c(C(F)(F)F)c1C(=O)Nc1ccc(Br)c(C(=O)Nc2ccc(F)cc2)n1 [Ic-1, N-[3-Brom-2-(4-fluor-phenylcarbamoyl)pyrid-6-yl]-1-methyl-3-(pentafluorethyl)-4-(trifluormethyl)-1H-pyrazol-5-carbonsäureamid] | 100% | 100% | – | – | 4.45 | – | –
O=C(Nc1ccc(Cl)c(C(=O)Nc2cccc(Cl)c2)c1)c1csc(C(F)(F)F)n1 [Ia-14] | – | – | – | – | 3.82 | – | –
